From ChEMBL document CHEMBL1201862, “PubChem BioAssay data set” (2004)
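Test compounds were applied to cells in 96-well plates for 48 hours at 5 doses. GI50 is the concentration that inhibits growth by half.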 The source made the active and inactive calls. Rule as the data show it: active = GI50 up to about 1.1 µM and inactive = higher.

What was measured:
Test in all cases: NCI tumour cell line growth inhibition, 48 h
[1] = test system: CAKI-1
[2] = test system: COLO 205
[3] = test system: EKVX
[4] = test system: HOP-62
[5] = test system: HT-29
[6] = test system: M14
[7] = test system: MCF7
[8] = test system: MDA-MB-231
[9] = test system: NCI-H23
[10] = test system: OVCAR-4
[11] = test system: OVCAR-8
[12] = test system: RXF 393
[13] = test system: SF-268
[14] = test system: SK-MEL-28
[15] = test system: SK-OV-3
[16] = test system: SN12C
[17] = test system: SNB-75
[18] = test system: UACC-257
[19] = test system: SNB-19
[20] = test system: Malme-3M

Measured: GI50

O=C(CC(C(=O)c1ccoc1)c1ccco1)c1ccco1 (centres undefined)
inactive: [1] > 100 µM | [2] > 100 µM | [3] > 100 µM | [4] > 100 µM | [5] > 100 µM | [6] > 100 µM | [7] > 100 µM | [8] 18.6 µM | [9] 98.4 µM | [10] 43.1 µM | [11] > 100 µM | [12] > 100 µM | [13] > 100 µM | [14] 37.9 µM | [15] > 100 µM | [16] > 100 µM | [17] > 100 µM | [18] > 100 µM

COc1cccc(-c2cccc(SC)n2)n1
inactive: [1] 60 µM | [2] 19.1 µM | [3] 17.7 µM | [4] 27.9 µM | [5] 21.8 µM | [6] 24 µM | [7] 31.3 µM | [8] 40.4 µM | [9] 23.8 µM | [10] 36.2 µM | [11] 35.6 µM | [12] 18.7 µM | [14] 29.6 µM | [15] 56.5 µM | [16] 36.8 µM | [19] 40.7 µM | [17] 26.4 µM | [18] 21 µM

Cc1cc(S(=O)(=O)Nc2n[nH]c(-c3ccc(Cl)cc3)n2)c(SSc2cc(Cl)c(C)cc2S(=O)(=O)Nc2n[nH]c(-c3ccc(Cl)cc3)n2)cc1Cl
inactive: [1] 34.2 µM | [2] 25.9 µM | [3] 32.5 µM | [4] 54.5 µM | [5] 23.6 µM | [6] 39.9 µM | [7] 24.6 µM | [8] 31.3 µM | [20] 46.3 µM | [9] 34.5 µM | [10] 28.5 µM | [11] 34.4 µM | [12] 25.1 µM | [13] 34.1 µM | [14] 33 µM | [15] 39.5 µM | [16] 43.6 µM | [17] 27.9 µM | [18] 61.7 µM

NC(=O)C(NC=O)c1ccccc1 (centres undefined)
inactive: [1] > 100 µM | [2] > 100 µM | [3] > 100 µM | [4] > 100 µM | [5] > 100 µM | [6] > 100 µM | [7] > 100 µM | [8] > 100 µM | [9] > 100 µM | [10] > 100 µM | [11] > 100 µM | [12] > 100 µM | [13] > 100 µM | [14] > 100 µM | [15] > 100 µM | [16] > 100 µM | [19] > 100 µM | [17] > 100 µM | [18] > 100 µM

O=C(N/N=C\c1cccc2c([N+](=O)[O-])cccc12)Nc1ccccc1
inactive: [1] 12.5 µM | [2] 18.5 µM | [3] 15.5 µM | [4] 16.2 µM | [5] 14.8 µM | [6] 12.9 µM | [7] 8.83 µM | [8] 17.8 µM | [20] 14.1 µM | [9] 15.8 µM | [10] 11.6 µM | [11] 12 µM | [12] 7.53 µM | [13] 21.6 µM | [14] 16.4 µM | [16] 4.59 µM | [19] 14.6 µM | [17] 22.3 µM | [18] 19.5 µM

CC1(C)CCCC2(C)C3=C(CCC12)C(=O)OC3 (centres undefined)
inactive: [1] 53.6 µM | [2] > 100 µM | [3] > 100 µM | [4] > 100 µM | [5] 66.7 µM | [6] > 100 µM | [7] > 100 µM | [8] > 100 µM | [20] > 100 µM | [9] > 100 µM | [10] 55.7 µM | [11] > 100 µM | [12] 62.2 µM | [13] > 100 µM | [14] > 100 µM | [15] > 100 µM | [16] > 100 µM | [17] > 100 µM | [18] > 100 µM

C=C1[C@H](OCC(C)C)[C@@H](OCC(C)C)[C@@H](O)C(C)(C)/C=C/[C@H](C)C(=O)[C@@]2(O)C[C@H](C)[C@H](O)[C@@H]2[C@H]1OCC(C)C
inactive: [1] 2.57 µM | [2] 2.13 µM | [4] 1.16 µM | [6] 2.14 µM | [7] > 7.5 µM | [8] 3.25 µM | [9] > 7.5 µM | [10] > 7.5 µM | [11] > 7.5 µM | [12] > 7.5 µM | [13] 6.24 µM | [15] > 7.5 µM | [16] > 7.5 µM | [19] > 7.5 µM | [17] 3.02 µM | [18] > 7.5 µM

CSC12c3cc(C)n(-c4ccccc4)c3CC(C)(C)CN1C(=O)C2Oc1ccccc1 (centres undefined)
inactive: [1] > 100 µM | [2] 30.5 µM | [3] 26.5 µM | [4] > 100 µM | [6] 12.4 µM | [7] 18 µM | [8] > 100 µM | [9] 27.9 µM | [10] > 100 µM | [11] 97.3 µM | [12] > 100 µM | [14] 62.7 µM | [16] > 100 µM | [19] > 100 µM | [17] > 100 µM | [18] 19.1 µM
